{"source": "patent US11944624B2", "about": "“Peptide and small molecule agonists of EphA and their uses” (CASE WESTERN RESERVE UNIVERSITY, priority 2017, dated 2024)", "key": {"EphA1": {"biological_target": "T1, EphA1 (Homo sapiens, UniProt P21709)", "T1 construct": "expressed in transfected cells; host or cells: HEK 293", "T1 sequence (P21709 26-976)": "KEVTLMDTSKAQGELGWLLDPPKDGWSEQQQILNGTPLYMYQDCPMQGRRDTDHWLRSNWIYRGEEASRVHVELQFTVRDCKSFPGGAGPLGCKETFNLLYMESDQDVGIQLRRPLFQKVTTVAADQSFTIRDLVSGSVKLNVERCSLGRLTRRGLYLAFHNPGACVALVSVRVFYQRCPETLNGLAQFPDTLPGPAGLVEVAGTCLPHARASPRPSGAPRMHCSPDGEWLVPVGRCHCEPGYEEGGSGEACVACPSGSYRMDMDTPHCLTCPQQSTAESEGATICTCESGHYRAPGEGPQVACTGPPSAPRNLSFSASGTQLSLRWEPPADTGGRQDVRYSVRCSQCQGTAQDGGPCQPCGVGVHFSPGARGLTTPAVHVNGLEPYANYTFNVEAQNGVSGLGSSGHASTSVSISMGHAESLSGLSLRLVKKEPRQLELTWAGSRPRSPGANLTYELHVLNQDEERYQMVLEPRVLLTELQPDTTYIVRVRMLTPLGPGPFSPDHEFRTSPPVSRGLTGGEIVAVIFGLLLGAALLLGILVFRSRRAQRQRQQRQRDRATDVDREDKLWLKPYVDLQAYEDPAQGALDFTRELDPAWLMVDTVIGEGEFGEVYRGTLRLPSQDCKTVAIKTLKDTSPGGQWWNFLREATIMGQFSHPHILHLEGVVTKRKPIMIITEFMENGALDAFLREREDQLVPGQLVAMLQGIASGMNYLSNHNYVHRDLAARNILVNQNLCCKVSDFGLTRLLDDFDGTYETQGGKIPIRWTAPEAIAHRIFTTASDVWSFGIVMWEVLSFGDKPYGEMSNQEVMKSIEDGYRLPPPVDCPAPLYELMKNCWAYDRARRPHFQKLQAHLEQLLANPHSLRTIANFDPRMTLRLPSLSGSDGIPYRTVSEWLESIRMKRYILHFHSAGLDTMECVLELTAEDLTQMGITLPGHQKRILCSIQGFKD", "test": "EphA1 activation in HEK 293 cells overexpressing EphA1", "format": "cell-based", "settings": "HEK 293 overexpressing EphA1, same concentrations", "method": "(§1) Cells were plated in 24-well dishes at a density of 100,000 cells/well and grown for 24 hours prior to stimulation with appropriate compounds and ephrins for the given amounts of time. Compounds were prepared in DMSO at 500 times the final concentrations and 0.2% DMSO was used as vehicle control. Following treatment, cells were lysed directly in SDS Gel Loading Buffer and immunoblotted as described previously. […] For immunoprecipitation, 300,000 cells/well were plated in 6-well dishes and lysed in modified RIPA Buffer (20 mM Tris-HCl pH 7.4, 20 mM NaF, 150 mM NaCl, 10% glycerol, 0.1% SDS, 0.5% DCA, 2 mM EDTA, 1% Triton X-100) following treatment. Either 10 μg of ephrin-A1-Fc, or 4 mg of EphA2 mouse monoclonal antibody (Clone D7, Millipore) were used, and mouse IgG was used as a negative control for EphA2 IP. […] For this purpose, HEK 293 cell lines overexpressing EphA1, EphA2, EphA3, EphA4, and EphB3 kinases were utilized."}, "ERK and Akt activities": {"test_system": "ERK and Akt activities", "test": "ERK and Akt activities in LK133A-Vec cells (EphA2 knockout)", "format": "cell-based, mice", "protocol": "Cells were plated in 24-well dishes at a density of 100,000 cells/well and grown for 24 hours prior to stimulation with appropriate compounds and ephrins for the given amounts of time. Compounds were prepared in DMSO at 500 times the final concentrations and 0.2% DMSO was used as vehicle control. Following treatment, cells were lysed directly in SDS Gel Loading Buffer and immunoblotted as described previously. Immunoprecipitation and immunofluorescence staining was performed as described. For immunoprecipitation, 300,000 cells/well were plated in 6-well dishes and lysed in modified RIPA Buffer (20 mM Tris-HCl pH 7.4, 20 mM NaF, 150 mM NaCl, 10% glycerol, 0.1% SDS, 0.5% DCA, 2 mM EDTA, 1% Triton X-100) following treatment. Either 10 μg of ephrin-A1-Fc, or […] of EphA2 mouse monoclonal antibody (Clone D7, Millipore) were used, and mouse IgG was used as a negative control for EphA2 IP.\nTo address this question, we utilized an immortalized liver epithelial cell line, LK133A, isolated from a hepatoma induced by DEN in EphA2 knockout mice. Retroviral vector was used to restore EphA2 expression in these cells (LK133A-A2), and cells transduced with an empty vector were used as control (LK133AVec)."}, "EphB3": {"biological_target": "T2, EphB3 (Homo sapiens, UniProt P54753)", "T2 construct": "expressed in transfected cells; host or cells: HEK 293", "T2 sequence (P54753 34-998)": "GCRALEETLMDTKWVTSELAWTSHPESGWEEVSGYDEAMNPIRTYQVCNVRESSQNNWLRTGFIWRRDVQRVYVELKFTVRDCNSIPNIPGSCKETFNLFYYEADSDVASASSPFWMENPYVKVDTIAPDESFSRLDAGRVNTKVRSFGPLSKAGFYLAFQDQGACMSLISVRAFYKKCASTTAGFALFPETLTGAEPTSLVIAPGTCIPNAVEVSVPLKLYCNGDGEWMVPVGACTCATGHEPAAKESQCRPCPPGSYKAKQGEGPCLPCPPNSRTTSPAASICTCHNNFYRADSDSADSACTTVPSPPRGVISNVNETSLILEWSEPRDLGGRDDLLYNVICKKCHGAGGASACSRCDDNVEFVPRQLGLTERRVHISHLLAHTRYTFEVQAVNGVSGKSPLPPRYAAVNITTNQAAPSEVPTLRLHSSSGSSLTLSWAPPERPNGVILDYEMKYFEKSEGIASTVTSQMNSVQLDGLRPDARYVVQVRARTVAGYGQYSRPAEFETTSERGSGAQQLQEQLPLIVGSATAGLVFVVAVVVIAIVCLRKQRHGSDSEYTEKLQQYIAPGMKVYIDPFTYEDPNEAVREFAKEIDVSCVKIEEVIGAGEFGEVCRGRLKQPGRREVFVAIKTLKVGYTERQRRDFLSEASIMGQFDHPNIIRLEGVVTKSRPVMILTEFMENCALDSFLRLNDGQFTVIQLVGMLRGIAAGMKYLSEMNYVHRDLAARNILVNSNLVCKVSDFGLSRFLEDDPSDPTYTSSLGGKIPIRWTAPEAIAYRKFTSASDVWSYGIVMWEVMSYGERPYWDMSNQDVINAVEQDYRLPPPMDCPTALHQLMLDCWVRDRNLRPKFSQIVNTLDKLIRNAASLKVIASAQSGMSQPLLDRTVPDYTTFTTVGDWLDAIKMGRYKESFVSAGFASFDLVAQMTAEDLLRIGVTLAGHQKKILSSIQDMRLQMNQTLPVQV", "test": "EphB3 activation in HEK 293 cells overexpressing EphB3", "format": "cell-based", "settings": "HEK 293 overexpressing EphB3, high basal activation", "method": "as §1"}}, "note": "“Also recorded” adds a separate entry of the source."}
{"smiles": "COc1cc2nc(N3CCN(C(=O)C4COc5ccccc5O4)CC3)nc(N)c2cc1OC", "note": "(stereo not drawn) [Doxazosin, 2-[4-(2,3-Dihydro-1,4-benzodioxine-2-carbonyl)piperazin-1-yl]-6,7-dimethoxyquinazolin-4-amine]", "values": [{"measurement": "EphA1 activation", "setting": "EphA1", "value": "no activation of EphA1"}, {"measurement": "effect on ERK and Akt activities in absence of EphA2", "setting": "ERK and Akt activities", "value": "neither doxazosin nor ephrin-A1-Fc was able to inhibit ERK and Akt activities; also recorded: notable increase in ERK and Akt activation"}, {"measurement": "EphB3 activation", "setting": "EphB3", "value": "notable decrease in EphB3 activation"}]}
